Experimental data reported in patent US20240391870A1 (Arcturus Therapeutics, Inc., priority 2023, published 2024).

What was measured:
hEPO = hEPO mRNA expression evaluation (hEPO-LNPs); format: in vivo, Balb/c mice; conditions: Table 2; 0.1 mpk i.v., serum hEPO after 6 hr
Procedure: Protocol for hEPO mRNA Expression Evaluation
Lipid formulations comprising a hEPO mRNA below were evaluated for their ability to express hEPO in vivo according to the protocol of this example. All animal experiments were conducted using institutionally-approved protocols (IACUC). In this protocol, female Balb/c mice at least 6-8 weeks of age were purchased from Charles River Laboratory. […] After 6 hr, blood was collected with serum separation tubes, and the serum was isolated by centrifugation. Serum hEPO levels were then measured using an ELISA assay (Human Erythropoietin Quantikine IVD ELISA Kit, R&D Systems, Minneapolis, MD).

Mouse plasma stability = format: in vitro ADME, CD-1 mouse; conditions: Table 2, mouse plasma 37 C, 1 uM lipid
Procedure: Lipid stock solution was prepared by dissolution of the lipid in isopropanol at the concentration of 5 mg/mL. A requisite volume of the lipid-isopropanol solution was then diluted to 100 μM concentration at a total volume of 1.0 mL with in 50:50 (v/v) ethanol/water. Ten microliters of this 100 μM solution was spiked into 1.0 mL of mouse plasma (BioIVT, Cat. No.: MSE00PLNHUNN, CD-1 mouse, anticoagulant: sodium heparin, not filtered) that was pre-warmed to 37° C. and was stirred at 50 rpm with a magnetic stir bar. The starting concentration of lipids in plasma was thus 1 μM. At time points 0, 15, 30, 45, 60 and 120 min, 0.1 mL of the plasma was withdrawn from the reaction mixture and the protein was precipitated by adding 0.9 mL of ice-cold 4:1 (v/v) acetonitrile/methanol with 1 μg/mL of a selected internal standard lipid added. After filtration through a 0.45 micron 96-well filtering plate, the filtrates were analyzed by LC-MS (Thermo Fisher's Vanquish UHPLC—LTQ XL linear ion trap Mass Spectrometer); Waters XBridge BEH Shield RP18 2.5 micron (2.1×100 mm) column with its matching guard column. Mobile phase A was 0.1% formic acid in water, and mobile phase B was 0.1% formic acid in 1:1 (v/v) acetonitrile/methanol. Flow rate was 0.5 ml/min. Elution gradient was: Time 0-1 min: 10% B; 1-6 min: 10%-95% B; 6-8.5 min: 95% B; 8.5-9 min: 95%-10% B; 9-10 min: 10% B. Mass spectrometry was in positive scanning mode from 600-1100 m/z. The peak of the molecular ion of the lipids was integrated in the extracted ion chromatography (XIC) using Xcalibur software (Thermo Fisher). The relative peak area compared to T=0, after normalization by the peak area of the internal standard, was used as the percentage of the lipid remaining at each time point. T1/2 values were calculated using the first-order decay model.

[1] = In vivo biodegradability assay (lipid in liver); conditions: Table 2, mouse liver, 48 h
Procedure: In vivo biodegradability assay was performed to assess the biodegradability of lipids in the LNP. Briefly, mice were injected with either 0.1 or 0.03 mg/Kg dose and after 24 or 48 hours mice livers were collected. To measure the concentration of lipids in the mouse liver, liver samples were homogenized in appropriate buffer in 1-10 dilution and mixed with the same amount of stabilized plasma. The samples were then mixed with organic solvents spiked with internal standard to precipitate proteins. After centrifugation, supernatant was diluted further with organic solvent before sample analysis by LC-MS. In LC-MS analysis, positive electrospray ionization was used, and multiple reaction monitoring (MRM) parameters were set up to specifically target the lipid analyte and internal standard. Calibration standards were prepared in stabilized plasma and mixed with same amount of homogenization buffer before protein precipitation. Quality control samples with known amounts of lipid was prepared in blank liver homogenate to monitor the precision and accuracy of the assay.

factor VII = experiment: Factor VII knock down evaluation (LNP with FVII siRNA); format: in vivo, Balb/C mice; conditions: Table 2, plasma FVII after 48 h vs saline control; for FVII KD % 0.01 mpk: 0.01 mpk i.v.; for FVII KD % 0.03 mpk: 0.03 mpk i.v.
Procedure: Lipid formulations comprising a FVII siRNA further described below were evaluated for their knockdown activity using the protocol of this example. In the FVII evaluation, seven to eight week-old, female Balb/C mice were purchased from Charles River Laboratories (Hollister, CA). The mice were held in a pathogen-free environment and all procedures involving the mice were performed in accordance with guidelines established by the Institutional Animal Care and Use Committee (IACUC). Lipid nanoparticles containing factor VII siRNA were administered intravenously at a dosing volume of 10 mL/kg and two dose levels (0.03 and 0.01 mg/kg). After 48 h, the mice were anesthetized with isoflurane and blood was collected retro-orbitally into Microtainer® tubes coated with 0.109 M sodium citrate buffer (BD Biosciences, San Diego, CA) and processed to plasma. Plasma specimens were tested for factor VII levels immediately or stored at −80° C. for later analysis. Measurement of FVII protein in plasma was determined using the colorimetric Biophen VII assay kit (Aniara Diagnostica, USA). Absorbance was measured at 405 nm and a calibration curve was generated using the serially diluted control plasma to determine levels of factor VII in plasma from treated animals, relative to the saline-treated control animals.

CC1CCC(CCC(=O)OCC(C)(COC(=O)CCC2CCC(C)CC2)COC(=O)CCN(CCC(=O)OCC(C)(COC(=O)CCC2CCC(C)CC2)COC(=O)CCC2CCC(C)CC2)C(=O)SCCCN(C)C)CC1 (stereo not drawn) [LIPID 20]
EPO exprssn (ng/mL) 0.1 mpk (hEPO): 1148 ng/mL
Percent remaining in mouse plasma after 2 h (Mouse plasma stability): 100%
In vivo degradability (ng/tissue) at 48h 0.03 mpk [1]: <340 ng/tissue
In vivo degradability (ng/tissue) at 48h 0.1 mpk [1]: <340 ng/tissue
FVII KD % 0.01 mpk (factor VII): 36%
FVII KD % 0.03 mpk (factor VII): 74%

CC1CCC(CC(=O)OCC(C)(COC(=O)CCN(CCC(=O)OCC(C)(COC(=O)CC2CCC(C)CC2)COC(=O)CC2CCC(C)CC2)C(=O)SCCCN(C)C)COC(=O)CC2CCC(C)CC2)CC1 (stereo not drawn) [LIPID 21]
EPO exprssn (ng/mL) 0.1 mpk (hEPO): 1028 ng/mL
Percent remaining in mouse plasma after 2 h (Mouse plasma stability): 100%
In vivo degradability (ng/tissue) at 48h 0.03 mpk [1]: <340 ng/tissue
In vivo degradability (ng/tissue) at 48h 0.1 mpk [1]: <340 ng/tissue
FVII KD % 0.01 mpk (factor VII): 57%
FVII KD % 0.03 mpk (factor VII): 90%

CCC1CCC(C(=O)OCC(C)(COC(=O)CCN(CCC(=O)OCC(C)(COC(=O)C2CCC(CC)CC2)COC(=O)C2CCC(CC)CC2)C(=O)SCCCN(C)C)COC(=O)C2CCC(CC)CC2)CC1 (stereo not drawn) [LIPID 22]
EPO exprssn (ng/mL) 0.1 mpk (hEPO): 1104 ng/mL
Percent remaining in mouse plasma after 2 h (Mouse plasma stability): 100%
In vivo degradability (ng/tissue) at 48h 0.03 mpk [1]: <340 ng/tissue
In vivo degradability (ng/tissue) at 48h 0.1 mpk [1]: <340 ng/tissue
FVII KD % 0.01 mpk (factor VII): 56%
FVII KD % 0.03 mpk (factor VII): 87%

CCCCC(C)(C)CC(=O)OCC(C)(COC(=O)CCN(CCC(=O)OCC(C)(COC(=O)CC(C)(C)CCCC)COC(=O)CC(C)(C)CCCC)C(=O)SCCCN(C)C)COC(=O)CC(C)(C)CCCC [LIPID 23]
EPO exprssn (ng/mL) 0.1 mpk (hEPO): 730 ng/mL
Percent remaining in mouse plasma after 2 h (Mouse plasma stability): 100%
In vivo degradability (ng/tissue) at 48h 0.03 mpk [1]: <340 ng/tissue
In vivo degradability (ng/tissue) at 48h 0.1 mpk [1]: <340 ng/tissue
FVII KD % 0.01 mpk (factor VII): 17%
FVII KD % 0.03 mpk (factor VII): 61.7%

CCCCCCCC(=O)OCC(C)(COC(=O)CCCCCCC)COC(=O)CCN(CCC(=O)OCC(C)(COC(=O)CCCCCCC)COC(=O)CCCCCCC)C(=O)SCCCN(C)C [LIPID 24]
EPO exprssn (ng/mL) 0.1 mpk (hEPO): 1420 ng/mL
Percent remaining in mouse plasma after 2 h (Mouse plasma stability): 100%
In vivo degradability (ng/tissue) at 48h 0.03 mpk [1]: BLOQ
In vivo degradability (ng/tissue) at 48h 0.1 mpk [1]: BLOQ
FVII KD % 0.01 mpk (factor VII): 60.5%
FVII KD % 0.03 mpk (factor VII): 87.4%

CCCCCCCCC(=O)OCC(COC(=O)CCCCCCCC)COC(=O)CCCN(CCCC(=O)OCC(COC(=O)CCCCCCCC)COC(=O)CCCCCCCC)C(=O)SCCCN(C)C [LIPID 25]
EPO exprssn (ng/mL) 0.1 mpk (hEPO): 2945 ng/mL
Percent remaining in mouse plasma after 2 h (Mouse plasma stability): 100%
In vivo degradability (ng/tissue) at 48h 0.03 mpk [1]: BLOQ
In vivo degradability (ng/tissue) at 48h 0.1 mpk [1]: BLOQ
FVII KD % 0.01 mpk (factor VII): 63%
FVII KD % 0.03 mpk (factor VII): 95%

CCCCCCCCC(=O)OCC(COC(=O)CCCCCCCC)COC(=O)CCN(CCC(=O)OCC(COC(=O)CCCCCCCC)COC(=O)CCCCCCCC)C(=O)SCCN(C)C [LIPID 26]
EPO exprssn (ng/mL) 0.1 mpk (hEPO): 70 ng/mL
Percent remaining in mouse plasma after 2 h (Mouse plasma stability): 100%
In vivo degradability (ng/tissue) at 48h 0.03 mpk [1]: BLOQ
In vivo degradability (ng/tissue) at 48h 0.1 mpk [1]: BLOQ
FVII KD % 0.01 mpk (factor VII): 8%
FVII KD % 0.03 mpk (factor VII): 50%

CC1CCC(CCC(=O)OCC(COC(=O)CCC2CCC(C)CC2)COC(=O)CCN(CCC(=O)OCC(COC(=O)CCC2CCC(C)CC2)COC(=O)CCC2CCC(C)CC2)C(=O)SCCCN(C)C)CC1 (stereo not drawn) [LIPID 27]
EPO exprssn (ng/mL) 0.1 mpk (hEPO): 69 ng/mL
Percent remaining in mouse plasma after 2 h (Mouse plasma stability): 100%
In vivo degradability (ng/tissue) at 48h 0.03 mpk [1]: BLOQ
In vivo degradability (ng/tissue) at 48h 0.1 mpk [1]: BLOQ
FVII KD % 0.01 mpk (factor VII): 48.1%
FVII KD % 0.03 mpk (factor VII): 84.9%

CN(C)CCCSC(=O)N(CCCC(=O)OC(COC(=O)C1CC2CCCCC2C1)COC(=O)C1CC2CCCCC2C1)CCCC(=O)OC(COC(=O)C1CC2CCCCC2C1)COC(=O)C1CC2CCCCC2C1 (stereo not drawn) [LIPID 28]
EPO exprssn (ng/mL) 0.1 mpk (hEPO): 216 ng/mL
Percent remaining in mouse plasma after 2 h (Mouse plasma stability): 100%
In vivo degradability (ng/tissue) at 48h 0.03 mpk [1]: BLOQ
In vivo degradability (ng/tissue) at 48h 0.1 mpk [1]: BLOQ
FVII KD % 0.01 mpk (factor VII): 26%
FVII KD % 0.03 mpk (factor VII): 75.3%

CN(C)CCCSC(=O)N(CCCC(=O)OC(COC(=O)C1CCC2CCCC2C1)COC(=O)C1CCC2CCCC2C1)CCCC(=O)OC(COC(=O)C1CCC2CCCC2C1)COC(=O)C1CCC2CCCC2C1 (stereo not drawn) [LIPID 30, ((4,4′-((((3-(dimethylamino)propyl)thio)carbonyl)azanediyl)bis (butanoyl))bis(oxy))bis(propane-2,1,3-triyl)tetrakis(octahydro-1H-indene-5-carboxylate)]
EPO exprssn (ng/mL) 0.1 mpk (hEPO): 95 ng/mL
Percent remaining in mouse plasma after 2 h (Mouse plasma stability): 100%
In vivo degradability (ng/tissue) at 48h 0.03 mpk [1]: BLOQ
In vivo degradability (ng/tissue) at 48h 0.1 mpk [1]: BLOQ
FVII KD % 0.01 mpk (factor VII): 3.2%
FVII KD % 0.03 mpk (factor VII): 62.1%

CCCCCCC(C)C(=O)OCC(COC(=O)C(C)CCCCCC)OC(=O)CCCN(CCCC(=O)OC(COC(=O)C(C)CCCCCC)COC(=O)C(C)CCCCCC)C(=O)OCCCN(C)C (stereo not drawn) [LIPID 35, [2-[4-[3-(dimethylamino)propoxycarbonyl-[4-[2-(2-methyloctanoyloxy)-1-(2-methyloctanoyloxymethyl)ethoxy]-4-oxo-butyl]amino]butanoyloxy]-3-(2-methyloctanoyloxy)propyl]2-methyloctanoate]
EPO exprssn (ng/mL) 0.1 mpk (hEPO): 678 ng/mL
FVII KD % 0.01 mpk (factor VII): 68.5%
FVII KD % 0.03 mpk (factor VII): 84%

CCCCCCC(C)C(=O)OCC(COC(=O)C(C)CCCCCC)OC(=O)CCCN(CCCC(=O)OC(COC(=O)C(C)CCCCCC)COC(=O)C(C)CCCCCC)C(=O)NCCCN(C)C (stereo not drawn) [LIPID 36, [2-[4-[3-(dimethylamino)propylcarbamoyl-[4-[2-(2-methyloctanoyloxy)-1-(2-methyloctanoyloxymethyl)ethoxy]-4-oxo-butyl]amino]butanoyloxy]-3-(2-methyloctanoyloxy)propyl]2-methyloctanoate]
EPO exprssn (ng/mL) 0.1 mpk (hEPO): 0 ng/mL
FVII KD % 0.01 mpk (factor VII): 0%
FVII KD % 0.03 mpk (factor VII): 0%

Cc1ccc(CCC(C)C(=O)OCC(COC(=O)C(C)CCc2ccc(C)cc2)OC(=O)CCCN(CCCC(=O)OC(COC(=O)C(C)CCc2ccc(C)cc2)COC(=O)C(C)CCc2ccc(C)cc2)C(=O)SCCCN(C)C)cc1 (stereo not drawn) [LIPID 41, ((4,4′-((((3-(dimethylamino)propyl)thio)carbonyl)azanediyl)bis (butanoyl))bis(oxy))bis(propane-2,1,3-triyl)tetrakis(2-methyl-4-(p-tolyl)butanoate)]
EPO exprssn (ng/mL) 0.1 mpk (hEPO): 1209 ng/mL
FVII KD % 0.01 mpk (factor VII): 56%
FVII KD % 0.03 mpk (factor VII): 76%
